The source of these data is patent publication US9051418B2, “Glucose-PEG conjugates for reducing glucose transport into a cell” (Agency for Science, Technology and Research, priority 2008, dated 2015).

Assay [1] has as its system different cancer cell lines. Conditions: 200 μM, MTT, Table 1. As to the method: MTT assay was carried out to monitor the viability of the cells. Values obtained for the cells without any treatments were kept as 100%.
Different cancer cell lines, MCF-7 (breast cancer), H1299 (lung cancer), HepG2 (liver cancer), DU145 (prostate cancer), Caco2 (colon cancer) and AGS (gastric cancer) were obtained from American Type Culture Collection (ATCC). Normal breast epithelial cell line (MCF-10A) was used for comparison. The cells were maintained in the growth medium as described by ATCC. Approximately 10,000 cells were seeded onto a 96-well plate. Modified glucose compounds were added to the cells after 24 h of seeding. The cells were further cultured in the presence of the modified glucose compounds for up to 7 days. The medium was changed everyday along with the specified concentration of modified glucose.
MTT assay was performed using the TACS™ MTT cell proliferation assay kit (Trevigen Inc, Md., USA). Briefly, after treatment of cells, 10 μl of MTT reagent was added and incubated at 37° C. for 4 h. The cells were lysed using detergent for 4 h at room temperature. The absorbance was measured in a standard plate reader at 570 nm.

The test system of assay [2] is H1299. Conditions: H1299, 200 μM, 3 days.
Description: Human lung cancer cells (H1299) were treated for 3 days with 200 μM of modified glucose (GBrP). Control cells were prepared without treatment. Total RNA was extracted from the cells and reverse transcribed. A PCR array containing primers to identify the apoptotic pathway was used to identify the apoptosis pathway between control and treated cells in lung cancer cells.
Gene expression analysis was carried out to understand the apoptosis pathway during the modified glucose mediated cell death.
In assay [3] the test system is DU145. Conditions: DU145, 200 μM, 3 days.
Assay [4] relates to MCF-7 cells. Put plainly: MTT cell viability assay, MCF-7 cells cultured 7 days with modified glucose. Conditions: MCF-7, different concentrations. How it is done:
MCF-7 cells were seeded onto 96-well plates at least 24 h prior to the experiment. […] MTT assay was performed to assess the cell viability. […] Cell viability was normalized with that of the control cells. […] The cells were treated as described in FIG. 3, followed by the MTT assay. […] MTT assay was carried out to monitor the viability of the cells. Values obtained for the cells without any treatments were kept as 100%. Different cancer cell lines, MCF-7 (breast cancer), H1299 (lung cancer), HepG2 (liver cancer), DU145 (prostate cancer), Caco2 (colon cancer) and AGS (gastric cancer) were obtained from American Type Culture Collection (ATCC). Normal breast epithelial cell line (MCF-10A) was used for comparison. The cells were maintained in the growth medium as described by ATCC. Approximately 10,000 cells were seeded onto a 96-well plate. Modified glucose compounds were added to the cells after 24 h of seeding. The cells were further cultured in the presence of the modified glucose compounds for up to 7 days. The medium was changed everyday along with the specified concentration of modified glucose. […] MTT assay was performed using the TACS™ MTT cell proliferation assay kit (Trevigen Inc, Md., USA). Briefly, after treatment of cells, 10 μl of MTT reagent was added and incubated at 37° C. for 4 h. […] The absorbance was measured in a standard plate reader at 570 nm.

The target of assay [5] is T1, GLUT1 (Homo sapiens, UniProt P11166).
T1 construct: host or cells: MCF-7 human breast cancer cells
T1 sequence (P11166 1-492): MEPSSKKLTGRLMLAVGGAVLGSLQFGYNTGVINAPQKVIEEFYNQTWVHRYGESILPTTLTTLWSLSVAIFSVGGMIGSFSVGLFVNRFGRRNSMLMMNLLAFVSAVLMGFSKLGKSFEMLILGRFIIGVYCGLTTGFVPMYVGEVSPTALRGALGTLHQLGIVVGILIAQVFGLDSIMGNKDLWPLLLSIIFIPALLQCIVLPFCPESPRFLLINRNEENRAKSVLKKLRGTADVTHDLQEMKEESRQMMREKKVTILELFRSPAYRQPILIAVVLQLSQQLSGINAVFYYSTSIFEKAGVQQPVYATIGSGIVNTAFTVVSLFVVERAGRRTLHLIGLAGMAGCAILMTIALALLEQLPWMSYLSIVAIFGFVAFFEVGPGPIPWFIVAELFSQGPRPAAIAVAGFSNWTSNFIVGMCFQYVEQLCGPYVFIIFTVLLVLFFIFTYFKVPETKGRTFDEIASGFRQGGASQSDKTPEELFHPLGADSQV
Put plainly: Glucose competition binding assay with GPB fluorescence. Conditions: MCF-7, 200 μM GPB, glucose 10-40 mM, 30 min, 37° C. How it is done: FIG. 6: Competition assay. […] The cells were incubated for 30 min at 37° C. The cells were washed with PBS, and the total intensity was measured using a plate reader.
FIG. 10: Binding of GBP to GLUT1. […] After 30 minutes the fluorescence intensity was measured using a plate reader.
The medium was removed and the cells were washed briefly with PBS twice. The fluorescence intensity was measured with an excitation of 488 nm and an emission of 522 nm. The fluorescence intensity was normalized by that of the control cells.
A glucose competition assay was carried out to confirm that the modified glucose-PEG is binding to the GLUT1 receptors. Increasing concentrations of un-modified glucose were used. […] After 30 minutes the fluorescence intensity was measured using a plate reader.

Assay [6] has as its system MCF-7 cells. Put plainly: Fluorescence imaging of cells labeled with GPB. It is filed as cell-based, human. Conditions: MCF-7, live fluorescence imaging after incubation and PBS wash. As to the method: They were washed with PBS before fluorescence imaging. Scale bar=500 μm. The MCF-7 cells were seeded on a 6-well plate at least 24 h prior to imaging. […] The cells were washed with PBS (without calcium and magnesium) thrice. Live imaging was performed with fluorescence microscopy. Metamorph (Molecular Devices, USA) and Image J (freeware from NIH, USA) were used for image capturing and processing.

Assay [7] concerns SkBr3 (human breast cancer) cell line. Conditions: SkBr3, concentration of 4 mM; cited from earlier work.
In assay [8] the test system is tumor. Conditions: animal studies, supplemental 2-DG; cited from earlier work.

“Also recorded” adds a separate entry of the source.

Consider glucose-conjugated branched PEG [GBrP], for which the “inhibition of viability of various different cancer cell lines” value in assay [1] is listed as “significantly inhibit the viability”. Also, the “apoptosis pathway gene expression, treated vs control” value in assay [2] is “AKT1 and ABL1 were down regulated while APAF1 and TP53BP were upregulated”; in assay [3] it was “AKT1 and ABL1 were down regulated while APAF1 and TP53BP were upregulated”.

Take Glucose-PEG-BODIPY [GPB]: in assay [4], the “dose-dependent effect on cell viability” value is listed as “gradual dose-dependent decrease in the cell viability”. The “competition of un-modified glucose with GPB binding (fluorescence intensity)” value in assay [5] was “glucose competed with the GPB in binding to the GLUTs; also recorded: intensity of the fluorescence decreases with the increase in un-modified glucose”. Besides, the “localization of fluorescence in cells” value in assay [6] was “localized on the plasma membrane of the cells”.

On to `O=CC[C@@H](O)[C@H](O)[C@H](O)CO` [2-DG, 2-deoxyglucose], for which the apoptotic cells in assay [7] is 50%. The tumor growth entry in assay [8] was “growth of the tumor was inhibited”.
